Legend:
hENPP2 [1] = molecular target: T1, hENPP2 (UniProtKB/SwissProt Sequence ref Q13822) (Homo sapiens (Human), UniProt Q13822); assay: FS3 hENPP2 assay (fluorogenic substrate FS-3); format: biochemical; details: hENPP2, FS-3 as substrate
Method: Compound IC50 values are determined in a fluorescent hENPP2 (UniProtKB/SwissProt Sequence ref Q13822) biochemical assay using the fluorogenic autotaxin substrate FS-3 as substrate. FS-3 is a doubly labeled analog of LPC wherein the fluorophore is quenched through intramolecular energy transfer. Without hENPP2, the emission of the probe is quenched. If the substrate is hydrolyzed by hENPP2, the emission of the probe is not quenched anymore resulting in a fluorescence increase. Inhibition of hENPP2 by compounds will result in a decrease of the signal.
10 μL of a dilution series of compound, starting from 20 μM highest concentration, ⅕ dilution, is added to the wells. hENPP2 is used at a final concentration of 0.4 μg/mL or 0.64 μg/mL (it will be appreciated by the skilled person that the potency read out is independent of the enzyme concentration). The enzyme is diluted in 50 mM Tris-HCl pH 8.0, 250 mM NaCl, 5 mM KCl, 1 mM MgCl2, 1 mM CaCl2, 0.1% fatty acid free BSA in a total volume of 20 μL. Enzyme mixture is added to compounds and the resulting mixture is incubated for 30 min at room temperature under shaking. The reaction is started by the addition of 20 μL of 0.75 μM FS-3 diluted in the same buffer as described above and the mixture is incubated at 30° C. for 30 min. Fluorescence is read on the Envision (Excitation 485 nm, emission 520 nm).

hENPP2 [2] = molecular target: T1, hENPP2; assay: LPC hENPP2 assay (choline release, LPC as substrate); format: biochemical
How it was run: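 Choline released from LPC by ENPP2 is quantified after stopping with stop-developer containing 0.6 U/mL choline oxidase, 0.6 U/mL peroxidase, 1.8 mM TOOS, 1.2 mM amino-antipyrine and 20 mM EGTA. Quinoneimine dye read at 555 nm after 30 min at room temperature.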

CCc1nc2ccc(N3CCCC(O)C3)nn2c1N(C)c1nc(-c2ccc(F)cc2)cs1 (centres unmarked) [Cpd 91, 1-(2-ethyl-3-((4-(4-fluorophenyl)thiazol-2-yl)(methyl)amino)imidazo[1,2-b]pyridazin-6-yl)piperidin-3-ol]
IC50 (hENPP2 [1]): 25 to 50 nM | IC50 (hENPP2 [2]): > 1000 nM

CCc1nc2ccc(N3CCC(CO)CC3)nn2c1N(C)c1nc(-c2ccc(F)cc2)cs1 [Cpd 93, (1-(2-ethyl-3-((4-(4-fluorophenyl)thiazol-2-yl)(methyl)amino)imidazo[1,2-b]pyridazin-6-yl)piperidin-4-yl)methanol]
IC50 (hENPP2 [1]): 0.01 to 25 nM | IC50 (hENPP2 [2]): > 1000 nM

CCc1nc2ccc(N3CCCC(CO)C3)nn2c1N(C)c1nc(-c2ccc(F)cc2)cs1 (centres unmarked) [Cpd 94, (1-(2-ethyl-3-((4-(4-fluorophenyl)thiazol-2-yl)(methyl)amino)imidazo[1,2-b]pyridazin-6-yl)piperidin-3-yl)methanol]
IC50 (hENPP2 [1]): 0.01 to 25 nM | IC50 (hENPP2 [2]): > 1000 nM

CCc1nc2ccc(N3CCC(C(N)=O)CC3)nn2c1N(C)c1nc(-c2ccc(F)cc2)cs1 [Cpd 98, 1-(2-ethyl-3-((4-(4-fluorophenyl)thiazol-2-yl)(methyl)amino)imidazo[1,2-b]pyridazin-6-yl)piperidine-4-carboxamide]
IC50 (hENPP2 [1]): 0.01 to 25 nM | IC50 (hENPP2 [2]): > 1000 nM

CCc1nc2ccc(N3CCCC(C(N)=O)C3)nn2c1N(C)c1nc(-c2ccc(F)cc2)cs1 (centres unmarked) [Cpd 99, 1-(2-ethyl-3-((4-(4-fluorophenyl)thiazol-2-yl)(methyl)amino)imidazo[1,2-b]pyridazin-6-yl)piperidine-3-carboxamide]
IC50 (hENPP2 [1]): 0.01 to 25 nM | IC50 (hENPP2 [2]): > 1000 nM

CCc1nc2ccc(N3CCCC(CNC(=O)OC(C)(C)C)C3)nn2c1N(C)c1nc(-c2ccc(F)cc2)cs1 (centres unmarked) [Cpd 100, [1-(2-Ethyl-3-{[4-(4-fluoro-phenyl)-thiazol-2-yl]-methyl-amino}-imidazo[1,2-b]pyridazin-6-yl)-piperidin-3-ylmethyl]-carbamic acid tert-butyl ester]
IC50 (hENPP2 [1]): 0.01 to 25 nM | IC50 (hENPP2 [2]): > 1000 nM

CCc1nc2ccc(N3CCCC(CN)C3)nn2c1N(C)c1nc(-c2ccc(F)cc2)cs1 (centres unmarked) [Cpd 101, N-(6-(3-(aminomethyl)piperidin-1-yl)-2-ethylimidazo[1,2-b]pyridazin-3-yl)-4-(4-fluorophenyl)-N-methylthiazol-2-amine]
IC50 (hENPP2 [1]): 25 to 50 nM | IC50 (hENPP2 [2]): > 1000 nM

CCc1nc2ccc(N3CCCC(CNS(C)(=O)=O)C3)nn2c1N(C)c1nc(-c2ccc(F)cc2)cs1 (centres unmarked) [Cpd 102, N-((1-(2-ethyl-3-((4-(4-fluorophenyl)thiazol-2-yl)(methyl)amino)imidazo[1,2-b]pyridazin-6-yl)piperidin-3-yl)methyl) methanesulfonamide]
IC50 (hENPP2 [1]): 0.01 to 25 nM | IC50 (hENPP2 [2]): > 1000 nM

CCc1nc2ccc(N3CCC(CC(=O)N(C)C)CC3)nn2c1N(C)c1nc(-c2ccc(F)cc2)cs1 [Cpd 108, 2-(1-(2-ethyl-3-((4-(4-fluorophenyl)thiazol-2-yl)(methyl)amino)imidazo[1,2-b]pyridazin-6-yl)piperidin-4-yl)-N,N-dimethylacetamide]
IC50 (hENPP2 [1]): 0.01 to 25 nM | IC50 (hENPP2 [2]): 500 to 1000 nM

CCc1nc2ccc(N3CCC(N4CCOCC4)CC3)nn2c1N(C)c1nc(-c2ccc(F)cc2)cs1 [Cpd 109, N-(2-ethyl-6-(4-morpholino-piperidin-1-yl)imidazo[1,2-b]pyridazin-3-yl)-4-(4-fluorophenyl)-N-methylthiazol-2-amine]
IC50 (hENPP2 [1]): 0.01 to 25 nM | IC50 (hENPP2 [2]): 500 to 1000 nM

CCc1nc2ccc(N3CCC(S(=O)(=O)NC4CC4)CC3)nn2c1N(C)c1nc(-c2ccc(F)cc2)cs1 [Cpd 114, N-cyclopropyl-1-(2-ethyl-3-((4-(4-fluorophenyl)thiazol-2-yl)(methyl)amino)imidazo[1,2-b]pyridazin-6-yl)piperidine-4-sulfonamide]
IC50 (hENPP2 [1]): 50 to 100 nM | IC50 (hENPP2 [2]): > 1000 nM

CCc1nc2ccc(N3CCCN(C(C)=O)CC3)nn2c1N(C)c1nc(-c2ccc(F)cc2)cs1 [Cpd 115, 1-(4-(2-ethyl-3-((4-(4-fluorophenyl)thiazol-2-yl)(methyl)amino)imidazo[1,2-b]pyridazin-6-yl)-1,4-diazepan-1-yl)ethanone]
IC50 (hENPP2 [1]): 0.01 to 25 nM | IC50 (hENPP2 [2]): > 1000 nM

CCc1nc2ccc(N3CCCN(S(C)(=O)=O)CC3)nn2c1N(C)c1nc(-c2ccc(F)cc2)cs1 [Cpd 116, N-(2-ethyl-6-(4-(methylsulfonyl)-1,4-diazepan-1-yl)imidazo[1,2-b]pyridazin-3-yl)-4-(4-fluorophenyl)-N-methylthiazol-2-amine]
IC50 (hENPP2 [1]): 0.01 to 25 nM | IC50 (hENPP2 [2]): > 1000 nM

CCc1nc2ccc(N3CC4CN(C(=O)OC(C)(C)C)CC4C3)nn2c1N(C)c1nc(-c2ccc(F)cc2)cs1 (centres unmarked) [Cpd 122, tert-butyl 5-(2-ethyl-3-((4-(4-fluorophenyl)thiazol-2-yl)(methyl)amino)imidazo[1,2-b]pyridazin-6-yl)hexahydro-pyrrolo[3,4-c] pyrrole-2(1H)-carboxylate]
IC50 (hENPP2 [1]): 0.01 to 25 nM | IC50 (hENPP2 [2]): > 1000 nM

CCc1nc2ccc(N3CC4CN(S(=O)(=O)CCCCl)CC4C3)nn2c1N(C)c1nc(-c2ccc(F)cc2)cs1 (centres unmarked) [Cpd 125, N-(6-(5-(3-chloropropyl-sulfonyl)-hexahydropyrrolo [3,4-c]pyrrol-2(1H)-yl)-2-ethylimidazo[1,2-b]pyridazin-3-yl)-4-(4-fluorophenyl)-N-methylthiazol-2-amine]
IC50 (hENPP2 [1]): 0.01 to 25 nM | IC50 (hENPP2 [2]): > 1000 nM

CCc1nc2ccc(N3CC4CN(S(=O)(=O)CCCN(C)C)CC4C3)nn2c1N(C)c1nc(-c2ccc(F)cc2)cs1 (centres unmarked) [Cpd 126, N-(6-(5-(3-(dimethylamino)propylsulfonyl)hexahydropyrrolo [3,4-c]pyrrol-2(1H)-yl)-2-ethylimidazo[1,2-b]pyridazin-3-yl)-4-(4-fluorophenyl)-N-methylthiazol-2-amine]
IC50 (hENPP2 [1]): 0.01 to 25 nM | IC50 (hENPP2 [2]): 500 to 1000 nM

CCc1nc2ccc(N3CCC(O)C3)nn2c1N(C)c1nc(-c2ccc(F)cc2)cs1 (centres unmarked) [Cpd 129, 1-(2-ethyl-3-((4-(4-fluorophenyl)thiazol-2-yl)(methyl)amino)imidazo[1,2-b]pyridazin-6-yl)pyrrolidin-3-ol]
IC50 (hENPP2 [1]): 0.01 to 25 nM | IC50 (hENPP2 [2]): > 1000 nM

CCc1nc2ccc(N3CCC(N4CCSCC4)C3)nn2c1N(C)c1nc(-c2ccc(F)cc2)cs1 (centres unmarked) [Cpd 131, N-(2-ethyl-6-(3-thiomorpholino-pyrrolidin-1-yl)imidazo[1,2-b]pyridazin-3-yl)-4-(4-fluorophenyl)-N-methylthiazol-2-amine]
IC50 (hENPP2 [1]): 0.01 to 25 nM | IC50 (hENPP2 [2]): > 1000 nM

CCc1nc2ccc(N3CCC(NC(=O)OC(C)(C)C)C3)nn2c1N(C)c1nc(-c2ccc(F)cc2)cs1 (centres unmarked) [Cpd 133, tert-butyl 1-(2-ethyl-3-((4-(4-fluorophenyl)thiazol-2-yl)(methyl)amino)imidazo[1,2-b]pyridazin-6-yl)pyrrolidin-3-ylcarbamate]
IC50 (hENPP2 [1]): 0.01 to 25 nM | IC50 (hENPP2 [2]): > 1000 nM

CCc1nc2ccc(N3CCC(N)C3)nn2c1N(C)c1nc(-c2ccc(F)cc2)cs1 (centres unmarked) [Cpd 134, N-(6-(3-aminopyrrolidin-1-yl)-2-ethylimidazo[1,2-b]pyridazin-3-yl)-4-(4-fluorophenyl)-N-methylthiazol-2-amine]
IC50 (hENPP2 [1]): 0.01 to 25 nM | IC50 (hENPP2 [2]): > 1000 nM

CCc1nc2ccc(N3CCC(NS(C)(=O)=O)C3)nn2c1N(C)c1nc(-c2ccc(F)cc2)cs1 (centres unmarked) [Cpd 137, N-(1-(2-ethyl-3-((4-(4-fluorophenyl)thiazol-2-yl)(methyl)amino)imidazo[1,2-b]pyridazin-6-yl)pyrrolidin-3-yl)methane-sulfonamide]
IC50 (hENPP2 [1]): 0.01 to 25 nM | IC50 (hENPP2 [2]): > 1000 nM

CCc1nc2ccc(N3CCCC3CO)nn2c1N(C)c1nc(-c2ccc(F)cc2)cs1 (centres unmarked) [Cpd 142, (1-(2-ethyl-3-((4-(4-fluorophenyl)thiazol-2-yl)(methyl)amino)imidazo[1,2-b]pyridazin-6-yl)pyrrolidin-2-yl)methanol]
IC50 (hENPP2 [1]): 0.01 to 25 nM | IC50 (hENPP2 [2]): > 1000 nM

CCc1nc2ccc(N3CCC(CO)C3)nn2c1N(C)c1nc(-c2ccc(F)cc2)cs1 (centres unmarked) [Cpd 143, (1-(2-ethyl-3-((4-(4-fluorophenyl)thiazol-2-yl)(methyl)amino)imidazo[1,2-b]pyridazin-6-yl)pyrrolidin-3-yl)methanol]
IC50 (hENPP2 [1]): 0.01 to 25 nM | IC50 (hENPP2 [2]): > 1000 nM

CCc1nc2ccc(N3CCC(N4CCN(CCCO)CC4)C3)nn2c1N(C)c1nc(-c2ccc(F)cc2)cs1 (centres unmarked) [Cpd 145, 3-(4-(1-(2-ethyl-3-((4-(4-fluorophenyl)thiazol-2-yl)(methyl)amino)imidazo[1,2-b]pyridazin-6-yl)pyrrolidin-3-yl)piperazin-1-yl)propan-1-ol]
IC50 (hENPP2 [1]): 0.01 to 25 nM | IC50 (hENPP2 [2]): 500 to 1000 nM

CCc1nc2ccc(N3CCC(N4CCOCC4)C3)nn2c1N(C)c1nc(-c2ccc(F)cc2)cs1 (centres unmarked) [Cpd 147, N-(2-ethyl-6-(3-morpholino-pyrrolidin-1-yl)imidazo[1,2-b]pyridazin-3-yl)-4-(4-fluorophenyl)-N-methylthiazol-2-amine]
IC50 (hENPP2 [1]): 0.01 to 25 nM | IC50 (hENPP2 [2]): 100 to 500 nM
